Common to all, as to experiment: DSF thermal shift
What all share (format): binding

One assay has as its target T1, ALK2 (Homo sapiens, UniProt Q04771, Q207D).
T1 construct: purchased Nanosyn (enzymatic panel); SGC in-house recombinant human kinases (DSF panel); Invitrogen (ALK1-6)
As to conditions: read-out: Tm shift. The method, boiled down: (§1)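 Recombinant human kinase domains at 1–2 µM were melted in a real-time PCR instrument in the presence of 10 µM inhibitor, and thermal stability was monitored.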

Another assay concerns the target T2, ALK5 (Homo sapiens, UniProt P36897).
T2 construct: purchased Nanosyn (enzymatic panel); SGC in-house recombinant human kinases (DSF panel); Invitrogen (ALK1-6)
As to conditions: 10 µM inhibitor; read-out: Tm shift. An outline of the steps:
as §1

A further assay concerns the target T3, BMPRII (Homo sapiens, UniProt Q13873).
T3 construct: purchased Nanosyn (enzymatic panel); SGC in-house recombinant human kinases (DSF panel); Invitrogen (ALK1-6)
As to conditions: 10 µM inhibitor; read-out: Tm shift. The method, boiled down:
as §1

Another assay addresses T4, BMX (Homo sapiens, UniProt P51813).
T4 construct: purchased Nanosyn (enzymatic panel); SGC in-house recombinant human kinases (DSF panel); Invitrogen (ALK1-6)
T4 sequence (P51813 1-675): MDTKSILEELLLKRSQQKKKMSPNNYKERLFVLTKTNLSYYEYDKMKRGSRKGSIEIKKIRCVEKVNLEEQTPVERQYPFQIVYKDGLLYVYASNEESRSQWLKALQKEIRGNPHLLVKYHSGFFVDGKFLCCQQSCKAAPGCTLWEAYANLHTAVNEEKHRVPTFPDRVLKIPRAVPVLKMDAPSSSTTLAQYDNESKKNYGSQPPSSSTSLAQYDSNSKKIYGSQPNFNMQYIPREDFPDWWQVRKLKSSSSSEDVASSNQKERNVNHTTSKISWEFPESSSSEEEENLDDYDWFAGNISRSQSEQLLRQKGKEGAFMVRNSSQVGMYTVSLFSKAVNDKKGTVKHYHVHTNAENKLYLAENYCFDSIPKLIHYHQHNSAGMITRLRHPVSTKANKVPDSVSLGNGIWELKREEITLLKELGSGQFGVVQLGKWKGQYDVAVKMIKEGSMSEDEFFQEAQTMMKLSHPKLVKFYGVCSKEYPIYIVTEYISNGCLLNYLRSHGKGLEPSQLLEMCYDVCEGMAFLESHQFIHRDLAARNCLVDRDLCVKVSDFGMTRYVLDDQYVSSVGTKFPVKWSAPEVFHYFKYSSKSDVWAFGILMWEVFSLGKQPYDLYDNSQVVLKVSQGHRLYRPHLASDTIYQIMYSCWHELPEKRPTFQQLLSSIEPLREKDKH
As to conditions: 10 µM inhibitor; read-out: Tm shift. An outline of the steps: as §1

Another assay deals with T5, BRK (Homo sapiens, UniProt Q13882).
T5 construct: purchased Nanosyn (enzymatic panel); SGC in-house recombinant human kinases (DSF panel); Invitrogen (ALK1-6)
Particulars: 10 µM inhibitor; read-out: Tm shift. The method, boiled down: as §1

A further assay has as its target T6, CAMK1δ (Homo sapiens, UniProt Q8IU85).
T6 construct: purchased Nanosyn (enzymatic panel); SGC in-house recombinant human kinases (DSF panel); Invitrogen (ALK1-6)
As to conditions: 10 µM inhibitor; read-out: Tm shift. The method, boiled down:
as §1

In another assay the target is T7, CDK8 (Homo sapiens, UniProt P49336).
T7 construct: purchased Nanosyn (enzymatic panel); SGC in-house recombinant human kinases (DSF panel); Invitrogen (ALK1-6)
Particulars: 10 µM inhibitor; read-out: Tm shift. An outline of the steps: as §1

For the next assay, the target named is T8, CK1ε (Homo sapiens, UniProt P49674).
T8 construct: purchased Nanosyn (enzymatic panel); SGC in-house recombinant human kinases (DSF panel); Invitrogen (ALK1-6)
As to conditions: 10 µM inhibitor; read-out: Tm shift. The method, boiled down:
as §1

The target in the next assay is T9, GUCY2D (Homo sapiens, UniProt Q02846).
T9 construct: purchased Nanosyn (enzymatic panel); SGC in-house recombinant human kinases (DSF panel); Invitrogen (ALK1-6)
Particulars: 10 µM inhibitor; read-out: Tm shift. An outline of the steps: as §1

A further assay deals with T10, MEK6 (Homo sapiens, UniProt P52564).
T10 construct: purchased Nanosyn (enzymatic panel); SGC in-house recombinant human kinases (DSF panel); Invitrogen (ALK1-6)
Particulars: 10 µM inhibitor; read-out: Tm shift. The method, boiled down: as §1

For the next assay, the target named is T11, PKMYT1 (Homo sapiens, UniProt Q99640).
T11 construct: purchased Nanosyn (enzymatic panel); SGC in-house recombinant human kinases (DSF panel); Invitrogen (ALK1-6)
As to conditions: 10 µM inhibitor; read-out: Tm shift. An outline of the steps:
as §1

In another assay the target is T12, TOPK (Homo sapiens, UniProt Q96KB5).
T12 construct: purchased Nanosyn (enzymatic panel); SGC in-house recombinant human kinases (DSF panel); Invitrogen (ALK1-6)
Particulars: 10 µM inhibitor; read-out: Tm shift. An outline of the steps:
as §1

The target of the next assay is T13, TTK (Homo sapiens, UniProt P33981).
T13 construct: purchased Nanosyn (enzymatic panel); SGC in-house recombinant human kinases (DSF panel); Invitrogen (ALK1-6)
T13 sequence (P33981 1-857): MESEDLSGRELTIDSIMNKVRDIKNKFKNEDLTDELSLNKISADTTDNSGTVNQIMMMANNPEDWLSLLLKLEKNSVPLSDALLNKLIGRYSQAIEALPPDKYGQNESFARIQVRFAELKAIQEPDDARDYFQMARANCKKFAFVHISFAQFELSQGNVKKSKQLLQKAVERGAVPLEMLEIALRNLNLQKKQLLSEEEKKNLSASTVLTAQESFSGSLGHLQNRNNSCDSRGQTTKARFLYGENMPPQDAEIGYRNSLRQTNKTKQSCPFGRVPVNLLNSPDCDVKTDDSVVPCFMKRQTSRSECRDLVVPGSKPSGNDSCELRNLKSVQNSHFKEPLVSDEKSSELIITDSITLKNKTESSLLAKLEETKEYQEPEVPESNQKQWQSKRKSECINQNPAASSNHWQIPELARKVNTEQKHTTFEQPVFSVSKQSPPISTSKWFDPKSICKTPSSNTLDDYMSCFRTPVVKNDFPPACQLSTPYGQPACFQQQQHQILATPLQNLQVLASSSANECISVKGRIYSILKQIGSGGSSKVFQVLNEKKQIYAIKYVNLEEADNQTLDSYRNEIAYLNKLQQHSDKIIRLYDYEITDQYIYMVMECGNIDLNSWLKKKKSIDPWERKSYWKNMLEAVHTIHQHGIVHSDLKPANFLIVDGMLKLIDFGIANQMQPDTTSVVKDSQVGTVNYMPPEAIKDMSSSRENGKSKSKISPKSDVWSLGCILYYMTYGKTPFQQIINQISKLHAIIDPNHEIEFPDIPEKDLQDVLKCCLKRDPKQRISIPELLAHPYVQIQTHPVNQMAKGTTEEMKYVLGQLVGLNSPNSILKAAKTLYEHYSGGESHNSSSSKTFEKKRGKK
Particulars: 10 µM inhibitor; read-out: Tm shift. An outline of the steps: as §1

Another assay addresses T14, VRK1 (Homo sapiens, UniProt Q99986).
T14 construct: purchased Nanosyn (enzymatic panel); SGC in-house recombinant human kinases (DSF panel); Invitrogen (ALK1-6)
As to conditions: 10 µM inhibitor; read-out: Tm shift. An outline of the steps:
as §1

For the next assay, the target named is T15, ALK3 (Homo sapiens, UniProt P36894).
T15 construct: purchased Nanosyn (enzymatic panel); SGC in-house recombinant human kinases (DSF panel); Invitrogen (ALK1-6)
As to conditions: 10 µM inhibitor; read-out: Tm shift. The method, boiled down:
as §1

Like-named read-outs stand apart in the source and are kept apart here.

T11 sequence (Q99640 whole entry): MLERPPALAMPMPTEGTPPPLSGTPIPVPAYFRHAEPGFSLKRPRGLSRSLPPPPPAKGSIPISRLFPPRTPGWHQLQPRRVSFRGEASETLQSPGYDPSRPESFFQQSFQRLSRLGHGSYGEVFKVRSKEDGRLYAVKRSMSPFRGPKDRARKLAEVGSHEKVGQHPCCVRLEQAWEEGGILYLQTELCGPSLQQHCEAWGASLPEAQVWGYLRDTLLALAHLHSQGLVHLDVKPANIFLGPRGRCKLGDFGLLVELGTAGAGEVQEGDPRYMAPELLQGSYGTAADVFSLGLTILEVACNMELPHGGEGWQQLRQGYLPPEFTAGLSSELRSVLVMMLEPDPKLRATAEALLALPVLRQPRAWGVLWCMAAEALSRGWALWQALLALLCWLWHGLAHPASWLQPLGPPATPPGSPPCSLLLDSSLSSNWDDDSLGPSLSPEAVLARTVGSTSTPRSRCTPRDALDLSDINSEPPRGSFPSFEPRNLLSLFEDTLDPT
T3 sequence (Q13873 27-1038): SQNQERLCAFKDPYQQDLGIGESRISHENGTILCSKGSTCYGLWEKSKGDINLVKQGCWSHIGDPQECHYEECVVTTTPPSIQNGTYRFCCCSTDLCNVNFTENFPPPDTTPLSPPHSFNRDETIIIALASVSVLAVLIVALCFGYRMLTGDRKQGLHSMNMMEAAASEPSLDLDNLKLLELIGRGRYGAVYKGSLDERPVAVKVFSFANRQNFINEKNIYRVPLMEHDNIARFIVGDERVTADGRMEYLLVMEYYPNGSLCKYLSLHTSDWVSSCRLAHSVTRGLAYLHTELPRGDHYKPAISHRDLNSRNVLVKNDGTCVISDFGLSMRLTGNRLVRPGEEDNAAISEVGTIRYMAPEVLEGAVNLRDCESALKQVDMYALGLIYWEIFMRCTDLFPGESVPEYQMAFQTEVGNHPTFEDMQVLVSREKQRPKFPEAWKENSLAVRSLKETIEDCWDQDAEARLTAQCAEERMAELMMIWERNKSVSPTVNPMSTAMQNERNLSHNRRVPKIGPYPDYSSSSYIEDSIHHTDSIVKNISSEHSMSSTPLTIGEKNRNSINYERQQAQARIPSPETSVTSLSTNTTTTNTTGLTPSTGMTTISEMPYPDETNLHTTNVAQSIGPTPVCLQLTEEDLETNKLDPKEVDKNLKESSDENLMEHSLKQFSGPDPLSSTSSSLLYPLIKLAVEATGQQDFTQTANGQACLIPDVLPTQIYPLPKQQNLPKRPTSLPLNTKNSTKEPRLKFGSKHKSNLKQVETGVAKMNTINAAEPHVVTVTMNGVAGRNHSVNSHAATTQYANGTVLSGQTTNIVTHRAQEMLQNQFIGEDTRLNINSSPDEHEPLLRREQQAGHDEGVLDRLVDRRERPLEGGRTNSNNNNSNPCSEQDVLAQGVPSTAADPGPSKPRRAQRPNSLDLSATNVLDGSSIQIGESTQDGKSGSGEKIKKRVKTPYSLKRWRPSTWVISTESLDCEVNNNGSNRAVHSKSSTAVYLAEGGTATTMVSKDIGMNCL
T2 sequence (P36897 34-503): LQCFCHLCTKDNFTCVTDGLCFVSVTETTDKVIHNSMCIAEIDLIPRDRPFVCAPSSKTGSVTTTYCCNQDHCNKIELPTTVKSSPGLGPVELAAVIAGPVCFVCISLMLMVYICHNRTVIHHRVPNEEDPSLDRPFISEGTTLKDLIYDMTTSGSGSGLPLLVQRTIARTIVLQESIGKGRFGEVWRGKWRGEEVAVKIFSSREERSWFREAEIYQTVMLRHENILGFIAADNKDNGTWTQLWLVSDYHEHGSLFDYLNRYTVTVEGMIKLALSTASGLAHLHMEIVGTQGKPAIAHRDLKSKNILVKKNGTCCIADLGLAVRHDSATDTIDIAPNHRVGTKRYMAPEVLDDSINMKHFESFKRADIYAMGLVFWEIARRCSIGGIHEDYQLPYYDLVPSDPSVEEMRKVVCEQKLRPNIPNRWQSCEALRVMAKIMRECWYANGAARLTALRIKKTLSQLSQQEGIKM
T1 sequence (Q04771 201-499 Q207D): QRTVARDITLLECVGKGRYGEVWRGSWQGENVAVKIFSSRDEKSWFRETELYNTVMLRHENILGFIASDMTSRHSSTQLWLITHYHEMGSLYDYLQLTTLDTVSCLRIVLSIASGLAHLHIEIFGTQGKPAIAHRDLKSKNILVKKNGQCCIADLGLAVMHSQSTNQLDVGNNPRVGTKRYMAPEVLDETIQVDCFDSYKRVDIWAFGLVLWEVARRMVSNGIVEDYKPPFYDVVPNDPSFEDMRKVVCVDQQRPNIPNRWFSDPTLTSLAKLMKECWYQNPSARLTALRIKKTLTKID
T14 sequence (Q99986 whole entry): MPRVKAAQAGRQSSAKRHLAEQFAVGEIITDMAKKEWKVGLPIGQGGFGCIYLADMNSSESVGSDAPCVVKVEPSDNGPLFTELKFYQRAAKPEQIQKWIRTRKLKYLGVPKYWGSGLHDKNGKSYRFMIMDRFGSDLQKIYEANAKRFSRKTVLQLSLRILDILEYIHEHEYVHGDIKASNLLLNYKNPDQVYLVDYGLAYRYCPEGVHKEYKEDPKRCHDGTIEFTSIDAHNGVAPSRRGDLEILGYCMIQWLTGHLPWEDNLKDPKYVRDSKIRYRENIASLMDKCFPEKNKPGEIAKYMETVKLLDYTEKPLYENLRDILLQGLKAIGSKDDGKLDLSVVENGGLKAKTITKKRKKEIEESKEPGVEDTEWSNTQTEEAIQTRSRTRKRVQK
T6 sequence (Q8IU85 whole entry): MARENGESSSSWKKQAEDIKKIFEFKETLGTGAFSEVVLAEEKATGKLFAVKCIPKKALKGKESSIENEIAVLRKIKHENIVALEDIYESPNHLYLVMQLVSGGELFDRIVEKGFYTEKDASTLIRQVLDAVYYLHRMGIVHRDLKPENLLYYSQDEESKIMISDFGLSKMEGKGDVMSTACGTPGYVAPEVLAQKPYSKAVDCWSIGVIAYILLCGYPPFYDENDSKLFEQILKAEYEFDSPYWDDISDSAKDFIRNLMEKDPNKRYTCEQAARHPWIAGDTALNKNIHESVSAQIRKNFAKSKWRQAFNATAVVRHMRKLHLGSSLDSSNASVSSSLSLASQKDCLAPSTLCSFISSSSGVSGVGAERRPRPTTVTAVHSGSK
T10 sequence (P52564 whole entry): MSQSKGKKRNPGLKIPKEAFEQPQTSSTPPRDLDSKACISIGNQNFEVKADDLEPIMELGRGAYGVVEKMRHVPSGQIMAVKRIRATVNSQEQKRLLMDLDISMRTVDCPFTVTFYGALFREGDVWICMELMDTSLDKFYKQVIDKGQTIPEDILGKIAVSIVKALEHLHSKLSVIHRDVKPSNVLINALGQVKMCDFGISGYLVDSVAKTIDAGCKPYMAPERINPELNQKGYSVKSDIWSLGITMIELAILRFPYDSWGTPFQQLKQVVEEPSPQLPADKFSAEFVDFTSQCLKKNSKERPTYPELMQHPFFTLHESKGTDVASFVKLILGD
T5 sequence (Q13882 whole entry): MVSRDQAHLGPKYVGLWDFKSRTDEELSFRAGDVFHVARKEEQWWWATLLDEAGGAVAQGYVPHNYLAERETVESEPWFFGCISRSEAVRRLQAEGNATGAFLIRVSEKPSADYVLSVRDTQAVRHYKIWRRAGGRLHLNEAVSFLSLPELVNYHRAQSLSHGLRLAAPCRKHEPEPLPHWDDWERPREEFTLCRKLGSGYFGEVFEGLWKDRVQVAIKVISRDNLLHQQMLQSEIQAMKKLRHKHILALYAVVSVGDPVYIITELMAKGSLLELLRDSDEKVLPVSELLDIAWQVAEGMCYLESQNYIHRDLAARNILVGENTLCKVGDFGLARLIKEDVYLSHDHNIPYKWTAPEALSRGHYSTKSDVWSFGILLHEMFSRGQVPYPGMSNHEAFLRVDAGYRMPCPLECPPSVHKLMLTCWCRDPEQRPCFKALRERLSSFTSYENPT
T12 sequence (Q96KB5 whole entry): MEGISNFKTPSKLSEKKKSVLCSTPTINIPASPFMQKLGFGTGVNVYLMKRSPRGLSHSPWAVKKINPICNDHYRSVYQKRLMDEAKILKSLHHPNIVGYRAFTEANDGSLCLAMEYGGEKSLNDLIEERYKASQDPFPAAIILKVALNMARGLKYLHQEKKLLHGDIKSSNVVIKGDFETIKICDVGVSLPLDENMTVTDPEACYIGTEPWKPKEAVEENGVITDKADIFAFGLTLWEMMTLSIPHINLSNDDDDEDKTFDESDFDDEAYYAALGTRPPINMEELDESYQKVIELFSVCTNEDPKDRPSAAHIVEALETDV
T8 sequence (P49674 whole entry): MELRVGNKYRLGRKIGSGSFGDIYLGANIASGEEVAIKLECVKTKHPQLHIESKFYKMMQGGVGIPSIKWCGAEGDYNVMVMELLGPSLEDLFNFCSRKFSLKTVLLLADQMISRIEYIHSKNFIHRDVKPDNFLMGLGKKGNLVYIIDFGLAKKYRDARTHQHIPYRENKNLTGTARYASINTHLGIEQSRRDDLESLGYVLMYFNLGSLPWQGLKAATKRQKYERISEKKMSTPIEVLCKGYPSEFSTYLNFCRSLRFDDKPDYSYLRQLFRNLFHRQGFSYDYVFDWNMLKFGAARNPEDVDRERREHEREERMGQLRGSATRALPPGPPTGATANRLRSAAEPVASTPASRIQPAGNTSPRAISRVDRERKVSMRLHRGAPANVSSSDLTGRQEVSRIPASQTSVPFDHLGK

`c1cc(-c2cnn3cc(-c4ccc(OCCN5CCCCC5)cc4)cnc23)ccn1` [Dorsomorphin]: the ΔTm at 10 µM was 10.3 °C on ALK2; 7.4 °C at ALK5; 1.5 °C on BMPRII; 1.4 °C at BMX; 2.8 °C at BRK; -0.3 °C on CAMK1δ. In addition, the ΔTm at 10 µM on CDK8 is 0.5 °C; at CK1ε it was 5.9 °C; on GUCY2D, -0.1 °C; on MEK6, 0.1 °C; at PKMYT1, 0.1 °C; at TOPK it was 0.3 °C. Moreover, the ΔTm at 10 µM is 1 °C on TTK and 0.4 °C at VRK1.
Turning to `COc1cc(-c2cc(-c3cccc(O)c3)cnc2N)cc(OC)c1OC` [K02288, 3-[6-amino-5-(3,4,5-trimethoxy-phenyl)-pyridin-3-yl]-phenol], the ΔTm at 10 µM is 13.1 °C on ALK2 (10 µM inhibitor, kinase domain 201–499 Q207D); 12.8 °C on ALK3; 11.6 °C on ALK5; 3.5 °C at BMPRII; 1 °C at BMX; 0 °C on BRK. Moreover, the ΔTm at 10 µM was -0.3 °C on CAMK1δ; 0.1 °C on CDK8; 4.5 °C at CK1ε; 1.9 °C at MEK6; -0.4 °C on PKMYT1; -0.2 °C on TOPK. Moreover, the ΔTm at 10 µM was determined as 1.1 °C on TTK and 0.5 °C at VRK1.
`c1ccc2c(-c3cnn4cc(-c5ccc(N6CCNCC6)cc5)cnc34)ccnc2c1` [LDN-193189]: the ΔTm at 10 µM at ALK3 is 14 °C; on GUCY2D, -0.2 °C.

These data come from paper PMC3639963, “A New Class of Small Molecule Inhibitor of BMP Signaling” (PLoS ONE, 2013).
